Source: article PMC6033213, “Structurally simple synthetic 1, 4-disubstituted piperidines with high selectivity for resistant Plasmodium falciparum” (BMC Pharmacology & Toxicology, 2018)
Values after ≈ are worked out from the molar mass of the structure shown. Where two headings read alike, the source gives them in different places.

Experiments:
P. falciparum 3D7 = test: Secondary screen: parasite growth inhibition by parasite lactate dehydrogenase (pLDH) assay, 3D7; assay type: cell-based, Plasmodium falciparum; parameters: key to Antiplasmodial activity class on 3D7: active, IC50 < 5 μg/mL; moderately active: 5 μg/mL ≤ IC50 ≤ 10 μg/mL; weakly active: IC50 ≥ 10 μg/mL
Excerpt: (§1) Two Plasmodium falciparum parasite strains were obtained from MR4 (Manassas, Virginia, USA) and stored in liquid nitrogen. The 3D7 (MRA-102) strain is chloroquine- sensitive while Dd2 is a multidrug resistant clone of the W2 strain with resistance to chloroquine, quinine, mefloquine, sulfadoxine and pyrimethamine. Parasite stocks were thawed, grown and maintained in continuous culture by the candle jar technique with some modifications. The culture consisted of 4% hematocrit suspension of human O+ erythrocytes in RPMI-1640 medium (10.43 g/L supplemented with 0.01 mg/mL gentamycin, 25 mM Hepes buffer, 25 mM NaHCO3) and 5 g Albumax II. All culture reagents were obtained from Sigma-Aldrich Inc. (Germany) except for Albumax II (Gibco; Invitrogen, USA). Cultures were incubated at 37 °C in 5% CO2.
(§2) After incubation the plate was frozen at − 20 °C for the parasite lactate dehydrogenase (pLDH) assay.
(§3) The reagent preparation and assay were done as described. The plates were subjected to 3 freeze-thaw cycles to haemolyze the red blood cells. One hundred microlitre (100 μL) of Malstat reagent was added to each required well of a fresh microtitre plate followed by 20 μL of culture. Then 25 μL of nitroblue tetrazolium/phenazine ethosulfate (NBT/PES) solution was added initiating the reaction. The plates were then incubated for an hour in the dark and optical density (OD) measured at 650 nm (Emax-Molecular Devices Corporation, California, USA).
(§4) For the parasite lactate dehydrogenase assay, the background OD of blank wells containing non parasitized red blood cells was subtracted from values of all test wells. OD values from control wells void of test compound represented the maximum pLDH activity. The OD values obtained were used to determine the IC50, and IC90 values using the software IC Method IC Estimator V1.2 [18], an online calculator of IC values. Each assay was done twice in duplicates and the 4 IC50 or CC50 values obtained were pooled together and expressed as mean IC ± S.D.

P. falciparum Dd2 [1] = test: Secondary screen: parasite growth inhibition by parasite lactate dehydrogenase (pLDH) assay, Dd2; assay type: cell-based, Plasmodium falciparum; parameters: key to Antiplasmodial activity class on Dd2: active, IC50 < 5 μg/mL; moderately active: 5 μg/mL ≤ IC50 ≤ 10 μg/mL; weakly active: IC50 ≥ 10 μg/mL
Excerpt: as §1, §2, §3, §4

P. falciparum Dd2 [2] = test: Primary screen: in vitro parasite growth inhibition at a single concentration, fluorescence microscopy with acridine orange; assay type: cell-based, Plasmodium falciparum; conditions: 40 μg/mL, 48 h, Dd2 chloroquine-resistant strain; for inhibition at 40 µg/mL: Plasmodium falciparum
Excerpt: as §1
A primary screen for antiplasmodial activity at a single concentration was performed against Dd2 as described with some modifications, to identify active compounds. Stock solutions of compound (1 mg/mL) was initially dissolved in dimethylsulfoxide (DMSO), then gentamycin-free incomplete medium (without Albumax II) added giving 2% final DMSO; the solutions were sterilized and stored. The positive control solutions (artemether and quinine at 5 μg/mL) were prepared similarly. The compounds were tested at a final concentration of 40 μg/mL in duplicate in a 96 well microtitre plate (100 μL per well), followed by 100 μL of 1% parasitized blood. Positive and negative controls (no drug) were included. The plate was incubated under the same culture conditions as above for 48 h and antiplasmodial activity determined by fluorescence microscopy (Leitz Wetzlar, Germany) with acridine orange stain at × 40 magnification under oil immersion. The number of infected erythrocytes (Ei) was counted in 20 monolayer fields (approximately 1500 cells per field) and the percentage parasitaemia was calculated using the formula:1 %parasitaemia=∑Ei/30,000×100
The percentage inhibition per concentration was then obtained using the formula below:2 percentage%inhibition=%parasitaemia of control well‐%parasitaemia of test well/%parasitaemia of control well×100

[3] = test system: LLC-MK2 monkey kidney epithelial cells; test: Cytotoxicity test, MTT/formazan assay; assay type: cell-based; conditions: for SI on 3D7: CC50 on LLC-MK2 cells/IC50 on P. falciparum 3D7; for SI on Dd2: CC50 on LLC-MK2 cells/IC50 on P. falciparum Dd2; for Mean SI: mean of the Selectivity Indices of the 3D7 and Dd2 parasite strains
Experimental: (§5) This was done on monkey kidney epithelial cells, LLC-MK2, (ATCC, USA) as described except for use of same culture medium and conditions for P falciparum above. The cells, 10,000 in 100 μL medium per well, were cultured for 24 h to become confluent and attached to the bottom of the well and the medium replaced with 100 μL of fresh medium. […] A negative control without test substance was included. The plates were incubated for 72 h at 37 °C in 5% CO2 and cell viability were determined using microscopy to observe dead cells which appeared dark and deformed. This was followed by the MTT/formazan assay as described above with slight modification. The CC50 values (50% cytotoxic concentration) for each compound was obtained using Microsoft excel 2007. The selectivity index (SI) was calculated using the formula:3 SI=CC50onLLC‐MK2cells/IC50onP.falciparum
as §4

[4] = Cytotoxicity test, MTT/formazan assay; assay type: cell-based, monkey; conditions: monkey, LLC-MK2 monkey kidney epithelial cells; LLC-MK2 cells, 72 h, MTT/formazan
Experimental: as §5, §4

[5] = Plasmodium falciparum, 3D7 chloroquine-sensitive strain, pLDH assay, mean ± S.D., read-out: IC50
[6] = Plasmodium falciparum, Dd2 chloroquine-resistant strain, pLDH assay, mean ± S.D., read-out: IC50
[7] = Plasmodium falciparum, Dd2 chloroquine-resistant strain, pLDH assay, mean ± S.D., read-out: IC90
[8] = Plasmodium falciparum, 3D7 chloroquine-sensitive strain, pLDH assay, mean ± S.D., read-out: IC90
[9] = Plasmodium falciparum, 3D7 strain, class by IC50, read-out: Antiplasmodial activity class on 3D7
[10] = Plasmodium falciparum, Dd2 strain, class by IC50, read-out: Antiplasmodial activity class on Dd2
[11] = 3D7 chloroquine-sensitive strain, pLDH assay, mean ± S.D.
[12] = Dd2 chloroquine-resistant strain, pLDH assay, mean ± S.D.

| Compound | IC50 (P. falciparum 3D7; [5]) [µg/mL] | IC50 (P. falciparum Dd2 [1]; [6]) [µg/mL] | IC90 (P. falciparum Dd2 [1]; [7]) [µg/mL] | IC90 (P. falciparum 3D7; [8]) [µg/mL] | IC50 (P. falciparum 3D7; [9]) [µg/mL] | inhibition at 40 µg/mL (P. falciparum Dd2 [2]) [%] | SI on 3D7 [3] | SI on Dd2 [3] | Mean SI [3] | CC50 at 72 h [4] [µg/mL] | IC50 (P. falciparum Dd2 [1]; [10]) [µg/mL] | Antiplasmodial activity class on 3D7 (P. falciparum 3D7; 3D7 strain, class by IC50) | Antiplasmodial activity class on Dd2 (P. falciparum Dd2 [1]; Dd2 strain, class by IC50) | Inhibition (%) of P. falciparum Dd2 growth (P. falciparum Dd2 [2]) | IC50 (P. falciparum 3D7; [11]) [µg/mL] | IC90 (P. falciparum 3D7; [11]) [µg/mL] | IC50 (P. falciparum Dd2 [1]; [12]) [µg/mL] | IC90 (P. falciparum Dd2 [1]; [12]) [µg/mL] |
| --- | --- | --- | --- | --- | --- | --- | --- | --- | --- | --- | --- | --- | --- | --- | --- | --- | --- | --- |
| CO[C@H]1O[C@@H]2O[C@@]3(C)CC[C@H]4[C@H](C)CC[C@@H]([C@H]1C)[C@@]24OO3 [Art, artemether, reference compound] | 0.045 (≈ 0.151 µM) | 0.039 (≈ 0.131 µM) | 0.046 (≈ 0.154 µM) |  |  |  |  |  |  |  |  |  |  |  |  |  |  |  |
| O=C(c1ccc(F)cc1)C1CCN(Cc2ccc(F)cc2)CC1 [Compound 1, [1-(4-fluorobenzyl)piperidin-4-yl] [4-fluorophenyl] methanone] | 8.45 ± 2.11 (≈ 26.8 µM) | 5.69 ± 2.38 (≈ 18 µM) | 27.6 ± 0.78 (≈ 87.5 µM) | 17.9 ± 0.18 (≈ 56.6 µM) | 5 to 10 (≈ 15.9 to 31.7 µM) | 83.2 | 22.17 | 32.91 | 27.54 ± 7.59 | 188 (≈ 595 µM) | 5 to 10 (≈ 15.9 to 31.7 µM) |  |  |  |  |  |  |  |
| O=C(c1ccc(F)cc1)C1CCN(Cc2ccc(Cl)c(Cl)c2)CC1 [Compound 2, [1-(3,4-dichlorobenzyl)piperidin-4-yl] [4-fluorophenyl] methanone] | 4.3 ± 3.75 (≈ 11.7 µM) | 5.97 ± 0.02 (≈ 16.3 µM) | 24.9 ± 4.14 (≈ 67.9 µM) | 17.61 ± 0.06 (≈ 48.1 µM) |  | 82.7 | 43.51 | 31.37 | 37.44 ± 8.58 | 188 (≈ 512 µM) | 5 to 10 (≈ 13.7 to 27.3 µM) | active |  |  |  |  |  |  |
| O=C(c1ccc(F)cc1)C1CCN(Cc2ccc(Cl)cc2)CC1 [Compound 3, [1-(4-chlorobenzyl)piperidin-4-yl] [4-fluorophenyl] methanone] | 3.21 ± 0.21 (≈ 9.67 µM) | 4.12 ± 1.28 (≈ 12.4 µM) | 32.4 ± 0.67 (≈ 97.6 µM) | 17.9 ± 2.39 (≈ 53.9 µM) |  | 56.6 |  |  | 17.31 ± 3.0 | 62.5 (≈ 188 µM) |  | active | active |  |  |  |  |  |
| O=C(c1ccc(F)cc1)C1CCN(Cc2ccccc2[N+](=O)[O-])CC1 [Compound 4, [1-(2-nitrobenzyl)piperidin-4-yl] [4-fluorophenyl] methanone] |  |  |  |  |  | 27.7 |  |  |  |  |  |  |  | poor inhibition |  |  |  |  |
| O=C(c1ccc(F)cc1)C1CCN(Cc2ccc(Br)cc2)CC1 [Compound 5, [1-(4-bromobenzyl)piperidin-4-yl] [4-fluorophenyl] methanone] | 10 ± 0.3 (≈ 26.6 µM) | 14.5 ± 1.34 (≈ 38.6 µM) | 32.3 ± 4.17 (≈ 85.9 µM) | 17.2 ± 0.97 (≈ 45.8 µM) | ≥ 10 | 64.8 |  |  |  |  | ≥ 10 |  |  |  |  |  |  |  |
| Cc1ccc(CN2CCC(C(=O)c3ccc(F)cc3)CC2)cc1 [Compound 6, [1-(4-methylbenzyl)piperidin-4-yl] [4-fluorophenyl] methanone] | 13.6 ± 0.31 (≈ 43.8 µM) | 12.8 ± 3.21 (≈ 40.9 µM) | 37.1 ± 0.53 (≈ 119 µM) | 19.1 ± 2.46 (≈ 61.3 µM) | ≥ 10 | 59.1 |  |  |  |  | ≥ 10 |  |  |  |  |  |  |  |
| OC(c1ccc(F)cc1)C1CCN(Cc2ccc(F)cc2)CC1 (centres unmarked) [Compound 7, [1-(4-fluorobenzyl)piperidin-4-yl] [4-fluorophenyl] methanol] | 4 ± 0.67 (≈ 12.6 µM) | 2.52 (≈ 7.94 µM) | 17.7 ± 4.34 (≈ 55.8 µM) | 14.6 ± 1.52 (≈ 46 µM) |  | 81.3 | 93.67 | 148.34 | 121.01 ± 38.7 | 375 (≈ 1180 µM) |  | active | active |  |  |  |  |  |
| OC(c1ccc(F)cc1)C1CCN(Cc2ccc(Cl)c(Cl)c2)CC1 (centres unmarked) [Compound 8, [1-(3,4-dichlorobenzyl)piperidin-4-yl] [4-fluorophenyl] methanol] | 4.43 ± 0.32 (≈ 12 µM) | 1.3 (≈ 3.53 µM) | 17.3 ± 3.27 (≈ 47.1 µM) | 13.9 ± 1.25 (≈ 37.7 µM) |  | 81.7 | 21.14 | 71.67 | 46.41 ± 35.7 | 93.8 (≈ 255 µM) |  | active | active |  |  |  |  |  |
| OC(c1ccc(F)cc1)C1CCN(Cc2ccc(Cl)cc2)CC1 (centres unmarked) [Compound 9, [1-(4-chlorobenzyl)piperidin-4-yl] [4-fluorophenyl] methanol] | 1.53 ± 0.24 (≈ 4.58 µM) | 1.67 ± 0.24 (≈ 5 µM) | 16.1 ± 2.13 (≈ 48.2 µM) | 16.1 ± 2.13 (≈ 48.2 µM) |  | 93.2 |  |  | 156.25 ± 9.5 | 250 (≈ 749 µM) |  | active | active |  |  |  |  |  |
| O=[N+]([O-])c1ccccc1CN1CCC(C(O)c2ccc(F)cc2)CC1 (centres unmarked) [Compound 10, [1-(2-nitrobenzyl)piperidin-4-yl] [4-fluorophenyl] methanol] | 13.5 ± 0.54 (≈ 39.3 µM) | 14 ± 1.76 (≈ 40.6 µM) | 35.3 ± 2.02 (≈ 102 µM) | 19.11 ± 0.02 (≈ 55.5 µM) | ≥ 10 | 79.7 |  |  |  |  | ≥ 10 |  |  |  |  |  |  |  |
| OC(c1ccc(F)cc1)C1CCN(Cc2ccc(Br)cc2)CC1 (centres unmarked) [Compound 11, [1-(4-bromobenzyl)piperidin-4-yl] [4-fluorophenyl] methanol] | 2.51 ± 0.3 (≈ 6.64 µM) | 1.03 (≈ 2.72 µM) | 27.8 ± 0.98 (≈ 73.5 µM) | 16.8 ± 0.88 (≈ 44.4 µM) |  | 85.6 | 74.49 |  | 128.26 ± 76.1 | 188 (≈ 496 µM) |  | active | active |  |  |  |  |  |
| Cc1ccc(CN2CCC(C(O)c3ccc(F)cc3)CC2)cc1 (centres unmarked) [Compound 12, [1-(4-methylbenzyl)piperidin-4-yl] [4-fluorophenyl] methanol] | 3.37 ± 0.82 (≈ 10.8 µM) | 2.78 ± 0.09 (≈ 8.87 µM) | 10.2 ± 3.31 (≈ 32.5 µM) | 15.7 (≈ 50.2 µM) |  | 83.1 | 55.52 | 67.39 | 61.46 ± 8.39 | 188 (≈ 598 µM) |  | active | active |  |  |  |  |  |
| C=C[C@H]1C[N@@]2CC[C@H]1C[C@H]2[C@H](O)c1ccnc2ccc(OC)cc12 [QN, quinine, reference compound] | 0.171 (≈ 0.527 µM) | 0.127 (≈ 0.391 µM) |  |  |  |  |  |  |  |  |  |  |  |  |  |  |  |  |
| N-{[1-(4-bromobenzyl) piperidin-4-yl] [4-fluorophenyl] methyl}-3-bromobenzylamine [Compound 14] |  |  |  |  |  |  | 163 |  |  |  |  | active | active | 86.0% | 2.28 ± 0.64 | 11.31 ± 3.50 | 2.57 ± 1.64 | 16.21 ± 0.35 |
